In the NIST ThermoML archive (doi:10.1016/j.fluid.2016.08.036):

Experiment: mn = molality of the nth substance listed, in mol/kg
Conditions: 87 kPa, Liquid, Vibrating tube method

CCn1cc[n+](C)c1.O=S(=O)([O-])O [1-ethyl-3-methylimidazolium hydrogen sulfate] + O
mass density [kg/m3]
Conditions | m1 = 0.0363 | m1 = 0.0687 | m1 = 0.1026 | m1 = 0.1384 | m1 = 0.1716 | m1 = 0.2049 | m1 = 0.2391 | m1 = 0.2718 | m1 = 0.3034 | m1 = 0.3375
293.15 K | 1000.86 | 1003.08 | 1005.3 | 1007.57 | 1009.63 | 1011.67 | 1013.72 | 1015.68 | 1017.53 | 1019.54
298.15 K | 999.65 | 1001.82 | 1003.99 | 1006.22 | 1008.23 | 1010.23 | 1012.24 | 1014.17 | 1016 | 1017.98
303.15 K | 998.2 | 1000.33 | 1002.46 | 1004.64 | 1006.63 | 1008.6 | 1010.58 | 1012.47 | 1014.26 | 1016.21
308.15 K | 996.54 | 998.63 | 1000.73 | 1002.87 | 1004.82 | 1006.76 | 1008.7 | 1010.58 | 1012.34 | 1014.25
313.15 K | 994.68 | 996.73 | 998.8 | 1000.91 | 1002.83 | 1004.74 | 1006.66 | 1008.5 | 1010.24 | 1012.13
